From patent US11292811B2, “Long-acting prodrugs of entecavir, preparing methods and uses thereof” (priority 2017, dated 2022)

Assays:
[1] = Pharmacokinetic test in the body of beagle (blood concentration of Entecavir after i.m. injection of prodrug suspension); assay type: in vivo
Procedure: Three conventional male beagles were used in the test, and they were forbidden to eat for 12 hours before administering drugs, and drank water freely meanwhile. Entecavir-5′-docosanoate (prepared in Example 4), Entecavir-5′-ursodesoxycholate (prepared in Example 5) and entecavir-5′-stearoylamidobutanoate (prepared in Example 19) were used to prepare a suspension, and were intramuscularly injected in a dosage of 0.508 mg/kg, 0.552 mg/kg, and 0.533 mg/kg respectively.
Treatment of blood plasma sample: 100 μL of blood plasma sample was added to 20 μL of methanol-water (V:V, 1:1) and 20 μL of interior label (2 μg/mL apigenin), and mixed through vortex. 200 μL of methanol was added and mixed through vortex, followed by being centrifuged under a centrifugal force of 14,000 g for 30 minutes. 10 μL of supernate was collected for analysis. The results are shown in Table 1, Table 2, and Table 3, as well as FIG. 1, FIG. 2 and FIG. 3.

[2] = cited from earlier work

Compound: C=C1[C@H](COC(=O)CCCNC(=O)CCCCCCCCCCCCCCCCC)[C@@H](O)C[C@@H]1n1cnc2c(=O)[nH]c(N)nc21 [Entecavir-5′-stearoylamidobutanoate]
- Release of injectable suspension after intramuscular injection ([1]; dog, in vivo): released sustainably and steady

Compound: Entecavir-5′-docosanoate
- Release of injectable suspension after intramuscular injection ([1]; dog, in vivo): released sustainably and steady

Compound: C=C1[C@H](CO)[C@@H](O)C[C@@H]1n1cnc2c(=O)[nH]c(N)nc21 [Entecavir]
- Cmax decrease when administered with food [2]: 44-46%
- Decrease of area under the curve (AUC) of the drug-time curve when administered with food [2]: 18-20%

Compound: C=C1[C@H](COC(=O)CC[C@@H](C)[C@H]2CC[C@H]3[C@@H]4[C@@H](O)C[C@@H]5C[C@H](O)CC[C@]5(C)[C@H]4CC[C@]23C)[C@@H](O)C[C@@H]1n1cnc2c(=O)[nH]c(N)nc21 [Entecavir-5′-ursodesoxycholate]
- Release of injectable suspension after intramuscular injection ([1]; beagle, intramuscularly injected suspension): released sustainably and steady
